According to patent US20220356169A1, “TETRAZINES FOR HIGH CLICK RELEASE SPEED AND YIELD” (priority 2019, published 2022):

How the values were obtained:
[1] = Activator stability in PBS at rt (UV decay at 520 nm); assay type: physicochemical; details: mean ± SD (n = 3)
Description: The assessment of activator stability was performed in PBS at rt. Solutions in DMSO (2.5 mM, 20 μL) were diluted with PBS (3.00 mL), filtered, and incubated at rt. The decrease of the absorption band at 520 nm was monitored using UV spectroscopy.

[2] = Cell proliferation assay (MTT); assay type: cell-based; details: human, 3 days incubation, mean ± SEM (n = 6), read-out: LS174T cell viability (%); for viability at 72 h, 0.01 μM: 0.01 μM activator; for viability at 72 h, 0.1 μM: 0.1 μM activator; for viability at 72 h, 1 μM: 1 μM activator
Description: The human colon carcinoma LS174T cell line was obtained from the American Type Culture Collection and cultured in RPMI-1640 medium supplemented with 2 mM glutamine and 10% heat inactivated fetal calf serum. Twenty-four hours prior to the experiment, the cells were plated in 96-well plates at a 5000 cells/well density. The cells were then incubated with serial dilutions (10 nM-1 μM; n=6) of activators 2.7, 2.8, 2.14, 2.16, 2.17, 2.18 and 2.19 in culture medium for 72h at 37° C. The % cell proliferation was assessed by an MTT assay, in comparison to cells incubated in culture medium without activator. No toxicity was observed when the LS174T cells were incubated with the tested activators (and possible metabolites formed in the presence of serum) for 3-days at a 0.01-1 μM activator concentration.

[3] = test system: 125I-labeled CC49 conjugate; assay: Triggered radiolabel release from 125I-labeled CC49-3.6 conjugate, SEC; details: 2h in PBS at 37° C.
Description: The anti-TAG72 mAb CC49 was conjugated with 3.6 in borate buffer pH 8.0 (containing 1 mM DTPA) using 3 equiv. TCEP. After conjugation, the product was dialyzed extensively (20 kDa MW cut-off membrane) in PBS. The CC49-3.6 the conjugate was radiolabeled using a previously described ^125I-labeled tetrazine [Albu et al., Bioconjug Chem 2016, 27, 207-216] in PBS at 37° C. for 1 h. Due to the higher reactivity of the TCO tag on the outside vs the cleavable TCO trigger on the inside the radiolabeling occurred selectively via the TCO tag. The crude labeling mixture was purified using a desalting cartridge (Zeba spin column, 40 kDa MW cut-off) then the isolated ^125I-labeled CC49 conjugate was incubated with activator 2.7 for 2h in PBS at 37° C., resulting in reaction with the TCO trigger, yielding 88.6% radiolabel release, as confirmed by SEC analysis.

[4] = Triggered release of Construct-A from TCO trigger, HPLC-MS/PDA
Description: At the specified time point, the sample was analyzed by HPLC-MS/PDA, and the release yield was determined from the observed amounts of IEDDA adducts, elimination product, and/or released Construct. In case the release was not complete, the sample was incubated at 37° C. for additional time and analyzed once again.

[5] = Second-order rate constant of the IEDDA reaction with TCO 3.2, stopped-flow UV-Vis, pseudo first-order conditions; assay type: physicochemical; details: 25% MeCN/PBS at 20° C.; mean ± SD (n = 5)
Description: (§1) The second-order rate constant of the IEDDA reaction between model TCO 3.2 and activators 2.7 or 2.8 in MeCN at 20° C. was determined (n=1) by UV-Vis spectrometry under second-order conditions. A cuvette was filled with a solution of activator (3 mL 0.083 mM in MeCN), and equilibrated at 20° C. Next, a solution of TCO 3.2 (10.0 μL, 25 mM in DMSO) was added. The absorption at 540 nm was measured every second in a time course experiment. From the decay of this absorption, the conversion x was calculated. The second-order rate constant k2 was determined from the slope of the curve of a plot of 1/c-1/c0 versus time. The second-order rate constant of the IEDDA reaction between model TCO 3.2 and activators 2.7, 2.8, 2.14, 2.16, or 2.17 in 25% MeCN/PBS at 20° C. was determined (n=5) by stopped-flow UV-Vis spectrometry under pseudo first-order conditions. Tetrazine solutions (0.25 mM in 25% MeCN/PBS) and TCO 3.2 (3.45 mM in 25% MeCN/PBS) were mixed in a volume ratio of 1:1, resulting in a concentration of 0.125 mM and 1.73 mM, respectively. The absorption at 520 nm was measured every 50 ms, and from the decay of this absorption, the pseudo first-order rate constant k1′ was determined by a nonlinear Simplex regression analysis of the data points using BioKine software. The second-order rate constant k2 was calculated: k2=k1′/c,TCO. As expected for a cycloaddition reaction, the reactivity in PBS is much higher than in MeCN, and importantly the tetrazines of the invention are at least 1 order of magnitude more reactive than the known and high-releasing 3,6-bismethyl-tetrazine (2.17), while giving similar release yields (see Example 7).

[6] = Second-order rate constant of the IEDDA reaction with TCO 3.2, UV-Vis under second-order conditions in MeCN; assay type: physicochemical; details: MeCN at 20° C.; n = 1
Description: as §1, with “As expected for a cycloaddition reaction, the reactivity in PBS is much higher than in MeCN, and importantly the tetrazines of the invention are at least 1 order of magnitude more reactive than the known and high-releasing 3,6-bismethyl-tetrazine (2.17), while giving similar release yields (see Example 7).” left out

ADC AVP0458-TCO-MMAE = assay: Triggered drug (MMAE) release from ADC in 50% mouse plasma, HPLC-SIM-MS; details: for MMAE release from ADC AVP0458-TCO-MMAE, Release (%) / MMAE release level, in words: 50% mouse plasma, 37° C.; for MMAE release level, in words: after 24h incubation
Description: In a 1.5 mL vial, the following was combined: 650 μL mouse plasma, 600 μL PBS, 20 μL ADC (1.62 μg/μL in PBS) and 7.5 μL d8-MMAE solution (0.167 μg/μL, internal standard). Next, aliquots of 20 μL were prepared to which 5.2 μL of a tetrazine solution (0.25 mM in 1:1 DMSO/H2O) was added and the solution was incubated at 37° C. At various times, 100 μL of cold MeCN was added to the aliquot and the mixture was vortexed, stored at 4° C. for 30 min. and centrifuged. 20 μL of supernatant was taken and combined with 100 μL of 1% formic acid (aq) solution. This sample was analysed with HPLC-SIM-MS to quantify the ratio of free MMAE and d8-MMAE, which is a measure of the release yield.

LS174T xenografts = assay: MMAE measurement in tumors; assay type: in vivo, mice; details: 24 h after administration of activator at dose 1×
Description: (§2) Female nude Balb/C mice were subcutaneously inoculated ca. 1×10^6 LS174T cells in the hind limb. Biodistribution studies started when the tumors reached 0.1-0.2 cm^3 size. Experiments were carried out to evaluate the reactivity between the TCO Trigger on tumor-bound ADC and activators 2.7, 2.8, 2.14 and 2.16 in LS174T xenografts, as previously performed for other activators [Rossin et al Nature Communications 2018, 9, 1484]. The activators were administered at a 20- to 100-lower dose than that used in previous activation and therapy studies (ca. 0.335 mmol/kg). […] Groups of tumor bearing mice (n=4) were injected with ^125I-labeled ADC (2 mg/kg) followed 48 h later by the activators (dose 1×: ca. 3.3 μmol/kg; dose 5×: ca. 16.7 μmol/kg) and, after 1 h, by [^111In]In-2.20 (ca. 0.33 μmol/kg). One group was injected with the same amount of ^125I-labeled ADC followed only by ^111In-2.20 49 h later. One group was injected only with ^111In-2.20 (non-specific probe binding). All mice were euthanized 23 h post-probe injection and the ^125I and ^111In uptakes in tumors were measured by γ-counting.
The concentration of MMAE released in tumors was measured as previously reported [Rossin et al Nature Communications 2018, 9, 1484]. […] For this reason, activator 2.16 was selected for a therapy study in combination with the click-cleavable ADC. At the doses of tc-ADC (4 mg/kg) and 2.16 (dose 10×; 33.5 μmol/kg) used for therapy study, a high level of 339±45 nM free MMAE was detected in tumors.

[7] = test system: TCO Trigger on tumor-bound ADC; assay: In vivo reactivity between ADC AVP0458-TCO-MMAE and tetrazine activators (tumor activation study); design: species or system mice; details: higher dose (dose 5×: ca. 16.7 μmol/kg)
Description: as §2

[8] = 2 min after reaction with activator

| Compound | half-life at 16.6 µM [1] [h] | viability at 72 h, 0.01 μM [2] [%] | viability at 72 h, 0.1 μM [2] [%] | viability at 72 h, 1 μM [2] [%] | Calculated k2 values for the reaction between tetrazine activators and TCO 3.2 in PBS [5] [M⁻¹ s⁻¹] | MMAE release from ADC AVP0458-TCO-MMAE, Release (%) (ADC AVP0458-TCO-MMAE; [8]) | MMAE release from ADC AVP0458-TCO-MMAE, Release (%) (ADC AVP0458-TCO-MMAE; 10 min) | MMAE release from ADC AVP0458-TCO-MMAE, Release (%) (ADC AVP0458-TCO-MMAE; 1 h) | MMAE release from ADC AVP0458-TCO-MMAE, Release (%) (ADC AVP0458-TCO-MMAE; 5 h) | MMAE release from ADC AVP0458-TCO-MMAE, Release (%) (ADC AVP0458-TCO-MMAE; 24 h, mean ± SD (n = 3)) | MMAE release level, in words (ADC AVP0458-TCO-MMAE) | other results |
| --- | --- | --- | --- | --- | --- | --- | --- | --- | --- | --- | --- | --- |
| Oc1cccnc1-c1nnc(-c2ncccc2O)nn1 [2.7, 2,2′-(1,2,4,5-Tetrazine-3,6-diyl)bis(pyridin-3-ol)] | 37.8 ± 0.8 | 93.6 ± 4.1 | 91.5 ± 4.4 | 98.2 ± 4.6 | 397 ± 4 | 53.8 | 80.1 | 80.9 | 83.8 | 98.4 ± 0.3 | as high as that obtained with the less reactive 2.17 | radiolabel release [3]: 88.6%; Construct release % ([4]; TCO 3.10, doxorubicin, 18 h, 37° C.): 18 h: 100%; Construct release % ([4]; TCO 3.10, released construct doxorubicin, 5 min): 5 min: 52%; Construct release % ([4]; TCO 3.11, released construct doxorubicin, 5 min): 5 min: 100%; Construct release % ([4]; TCO 3.2, dimethylamine, 2 h, incubated at 37° C.): 2 h: 80%; Construct release % ([4]; TCO 3.2, dimethylamine, 20 h, incubated at 37° C.): 20 h: 95%; Construct release % ([4]; TCO 3.2, released construct dimethylamine, 5 min, MeCN/PBS): 5 min: 50%; Construct release % ([4]; TCO 3.23, released construct dimethylamine, 5 min): 5 min: 100%; Construct release % ([4]; TCO 3.32, released construct dimethylamine, 5 min): 5 min: 100%; Construct release % ([4]; TCO 3.7, 3-phenylpropan-1-ol, 24 h, 37° C.): 24 h: 88%; Construct release % ([4]; TCO 3.7, 3-phenylpropan-1-ol, 48 h, 37° C.): 48 h: 95%; Construct release % ([4]; TCO 3.7, released construct 3-phenylpropan-1-ol, 5 min): 5 min: 74%; Construct release % ([4]; TCO 3.8, benzoic acid, 24 h, 37° C.): 24 h: 90%; Construct release % ([4]; TCO 3.8, released construct benzoic acid, 5 min): 5 min: 45%; Construct release % ([4]; TCO 3.9, phenol, 24 h, 37° C.): 24 h: 93%; Construct release % ([4]; TCO 3.9, released construct phenol, 5 min): 5 min: 50%; Calculated k2 values for the reaction between tetrazine activators and TCO 3.2 in MeCN [6]: 68 M⁻¹ s⁻¹; MMAE release speed, in words (ADC AVP0458-TCO-MMAE; compared with 2.17): faster |
| O=C(CCCC(=O)Nc1cccnc1-c1nnc(-c2ncccc2NC(=O)CCCC(=O)NCCOCCOCCOCCOCCOCCOCCOCCOCCOCCO)nn1)NCCOCCOCCOCCOCCOCCOCCOCCOCCOCCO [2.14, N^1,N^1′-(2,2′-(1,2,4,5-Tetrazine-3,6-diyl)bis(pyridine-3,2-diyl))bis(N^5-(29-hydroxy-3,6,9,12,15,18,21,24,27-nonaoxanonacosyl)glutaramide)] | 8.7 ± 0.1 | 107 ± 3 | 104 ± 2.7 | 97 ± 2.5 | 748 ± 20 | 0.6 | 2.1 | 16.6 | 49.9 | 80.5 ± 0.3 | as high as that obtained with the less reactive 2.17 | free MMAE in tumors, comparison of activators (LS174T xenografts): No difference; on-tumor reaction yield with the ADC (tumor activation) [7]: 94.2±1.8% |
